In patent US10004791B2, “Peptide vaccines against PCSK9” (AFFIRIS AG, priority 2014, dated 2018):

Legend:
[1] = tested on: human PCSK9 protein; experiment: Protein ELISA: titers of vaccine-induced PCSK9-specific antibodies in plasma of immunized mice; format: in vivo, BALB/c mice; details: for titers against huPCSK9 (ODmax/2): mean titer, n=5 BALB/c mice/group, s.c. 4 x 15 μg net peptide coupled to KLH, Alhydrogel, plasma 2 weeks after final injection, titer = serum dilution at 50% ODmax; for capacity to elicit a humoral immune response targeting PCSK9: result in words
Experimental: (§1) The peptides were conjugated via the heterobifunctional linker GMBS (4-Maleimidobutyric acid N-hydroxysuccinimide ester) to KLH (Keyhole Limpet Hemocyanin).
5 BALB/c mice were subcutaneously immunized. Mice had access to food and water ad libitum and were kept under a 12 h light/dark cycle. The age of mice at the beginning of experiments was 8 to 10 weeks.
(§2) Mice were injected four times in 2 week intervals with 15 μg of net peptide coupled to KLH and adsorbed to Alhydrogel as adjuvant in a volume of 1 ml in total.
(§3) Blood was taken approximately 2 weeks after the final injection.
To determine the immunogenicity of the vaccines, and thus to identify the amount of PCSK9 specific antibodies in the plasma of immunized animals, ELISA immunoassay was performed. The ELISA immunoassay generates a signal which can be easily quantified and represents a quantitative measure of the amount of vaccine induced PCSK9-specific antibodies. Thus the titers as measured by ELISA correlate directly with the amount (μg/ml) of target specific antibodies in the plasma sample of treated animals. All plasma samples were collected two weeks after the final immunization and equality treated. In order to have a direct comparison, the quantitative evaluation by the PCSK9 Protein ELISA immunoassay of the vaccine induced PCSK9-specific antibodies and the comparison to their relative controls (originals sequence and negative control) was performed for all samples simultaneously. For this purpose, ELISA plates were coated with recombinantly expressed human PCSK9 protein. Unspecific binding was blocked by incubation with blocking buffer (1% BSA in PBS). Appropriate serum dilutions (with a starting dilution of 1:100) were added to the wells, serially diluted 1:2 fold (12 dilution steps) and incubated for approximately 1 hour. Bound antibodies were detected by incubation with anti-mouse IgG antibody, ABTS was added as substrate and the OD at 405 nm was measured. As negative control sera from the control group injected with an irrelevant peptide were analyzed. The titers were defined as the dilution of the serum where 50% of the ODmax in the assay is reached.

[2] = Total cholesterol assay in plasma of immunized mice (15 μg net peptide, four injections); format: in vivo, BALB/c mice; details: for TC in % (FIG. 2A) / TC in % (FIG. 2B): mean total cholesterol, single AA exchange; for TC in % (FIG. 2A): n=3 mice/group, negative control group (irrelevant peptide) set as 100%; for TC in % (FIG. 2B) / TC in % multiple AA exchanges (FIG. 2C): n=5 mice/group, negative control group set as 100%; for TC in % multiple AA exchanges (FIG. 2C): total cholesterol
Experimental: as §1
[…] Mice had access to food and water ad libitum and were kept under a 12 h light/dark cycle. The age of mice at the beginning of experiments was 8 to 10 weeks.
as §2, §3
All plasma samples were collected two weeks after the final immunization and equality treated. Total cholesterol (TC) measurements were performed simultaneously for all samples and side by side compared to their related controls (originals sequence and negative control). The simultaneous quantitative measurement of the plasma TC levels in mg/dL was measured by LabAssay™ Cholesterol Kit (Wako). In details, upon incubation with the chromogen reagent containing cholesterol esterase, the cholesterol esters in the samples were decomposed into free cholesterol and fatty acids. Subsequently the free cholesterol was oxidized by the cholesterol oxidase, leading to the simultaneously release of hydrogen peroxide. The produced hydrogen peroxide let DAOS and 4-Aminoantipyrin oxidize and condensate quantitatively by peroxidase (HRP), which produced blue pigment. Optical density was measured at 600 nm and quantification of the TC was calculated according to a standard curve.

[3] = tested on: huPCSK9; experiment: Inhibition of furin cleavage of huPCSK9 by plasma from vaccinated mice (SDS-PAGE / Western blot); format: biochemical, human; details: 4 μl mouse plasma, 250 ng biotinylated huPCSK9, 2 U furin overnight RT; FIG. 3; result in words
Experimental: The furin cleavage reaction was performed with 2 Units Furin (˜110 ng) (New England Biolabs) in PCSK9 buffer containing 100 mM Hepes Buffer pH 7.5, 5% Triton-X and 1 mM CaCl. In details, 4 μl mouse plasma from VARIOTOPE®s vaccinated mice was incubated with 250 ng biotinylated huPCSK9 (BPS Bioscience) in PCSK9 buffer for 1 h at room temperature. Subsequently, 2U Furin (˜110 ng) (New England Biolabs) was added to the reaction solution and incubated over night at RT. The reaction product was analyzed by SDS-PAGE under reducing conditions.

Row | Substance | titers against huPCSK9 (ODmax/2) [1] | also measured
1 | 1 (PEEDGTRFHRQASK) [compound 1] | 12074 | TC in % (FIG. 2A) [2]: 81%; TC in % (FIG. 2B) [2]: 89%; TC in % multiple AA exchanges (FIG. 2C) [2]: 81%
2 | 2 (AEEDGTRFHRQASK) [compound 2] | 36869 | 
3 | 3 (PAEDGTRFHRQASK) [compound 3] | 2774 | 
4 | 4 (PEEDGTRFARQASK) [compound 4] | 21494 | 
5 | 5 (PEEDGTRFHAQASK) [compound 5] | 33442 | 
6 | 6 (PEEDGTRFHRAASK) [compound 6] | 22475 | 
7 | 7 (PEEDGTRFHRQAAK) [compound 7] | 15676 | 
8 | 8 (PEEDGTRFHRQASA) [compound 8] | 23638 | 
9 | 9 (TEEDGTRFHRQASK) [compound 9] | 23944 | 
10 | 10 (PQEDGTRFHRQASK) [compound 10] | 29228 | inhibition of furin cleavage of mature PCSK9 (aa153-692) / formation of truncated PCSK9 (aa219-692, ~50 kDa) by induced antibodies [3]: inhibit the formation of truncated furin cleaved PCSK9; TC in % (FIG. 2A) [2]: 78%
11 | 11 (PKEDGTRFHRQASK) [compound 11] | 6610 | 
12 | 12 (PEEDGSRFHRQASK) [compound 12] | 12636 | 
13 | 13 (PEEDGTRFHQQASK) [compound 13] | 18490 | 
14 | 14 (PEEDGTRFHKQASK) [compound 14] | 17795 | 
15 | 15 (PEEDGTRFHMQASK) [compound 15] | 15556 | 
16 | 16 (PEEDGTRFHREASK) [compound 16] | 18670 | 
17 | 17 (PEEDGTRFHRRASK) [compound 17] | 28996 | inhibition of furin cleavage of mature PCSK9 (aa153-692) / formation of truncated PCSK9 (aa219-692, ~50 kDa) by induced antibodies [3]: inhibit the formation of truncated furin cleaved PCSK9; TC in % (FIG. 2A) [2]: 81%
18 | 18 (PEEDGTRFHRKASK) [compound 18] | 30537 | inhibition of furin cleavage of mature PCSK9 (aa153-692) / formation of truncated PCSK9 (aa219-692, ~50 kDa) by induced antibodies [3]: inhibit the formation of truncated furin cleaved PCSK9; TC in % (FIG. 2A) [2]: 81%
19 | 19 (PEEDGTRFHRQSSK) [compound 19] | 41310 | 
20 | 20 (PEEDGTRFHRQATK) [compound 20] | 10813 | 
21 | 21 (PEEDGTRFHRQANK) [compound 21] | 15303 | 
22 | 22 (PEEDGTRFHRQALK) [compound 22] | 8694 | 
23 | 23 (PEEDGTRFHRQASR) [compound 23] | 14722 | TC in % (FIG. 2A) [2]: 70%
24 | 24 (PEEDGTRFHRQASL) [compound 24] | 19471 | 
25 | 25 (KEEDGTRFHRQASK) [compound 25] | 19315 | 
26 | 26 (PEWDGTRFHRQASK) [compound 26] | 840 | 

Row | Substance | titers against huPCSK9 (ODmax/2) [1] | also measured
27 | 27 (PEEDKTRFHRQASK) [compound 27] | 7154 | 
28 | 28 (PEEDGTGFHRQASK) [compound 28] | 0 | 
29 | 29 (PEEDGTRFSRQASK) [compound 29] | 33111 | 
30 | 30 (PEEDGTRFTRQASK) [compound 30] | 9519 | 
31 | 31 (PEEDGTRFVRQASK) [compound 31] | 11850 | 
32 | 32 (PEEDGTRFGRQASK) [compound 32] | 822 | 
33 | 33 (PEEDGTRFMRQASK) [compound 33] | 10651 | 
34 | 34 (PEEDGTRFHPQASK) [compound 34] | 20318 | 
35 | 35 (PEEDGTRFHSQASK) [compound 35] | 29223 | 
36 | 36 (PEEDGTRFHRTASK) [compound 36] | 29984 | TC in % (FIG. 2B) [2]: 72%
37 | 37 (PEEDGTRFHRQTSK) [compound 37] | 25826 | 
38 | 38 (PEEDGTRFHRQASS) [compound 38] | 31481 | 
39 | 39 (PEEDGTRFHRQAST) [compound 39] | 13172 | 
40 | 40 (PEEDGTRFHRQASV) [compound 40] | 22678 | 
41 | 41 (PEEDGSRFHKQASK) [compound 41] | 37296 | TC in % multiple AA exchanges (FIG. 2C) [2]: 66%
42 | 42 (PEEDGSRFHMQASK) [compound 42] | 18599 | 
43 | 43 (PEEDGSRFHRRASK) [compound 43] | 29435 | 
44 | 44 (PEEDGSRFHRQATK) [compound 44] | 20684 | TC in % multiple AA exchanges (FIG. 2C) [2]: 74%
45 | 45 (PEEDGSRFHRRATK) [compound 45] | 11097 | 
46 | PEEDGTGFHRQASK [SEQ ID NO: 28] |  | capacity to elicit a humoral immune response targeting PCSK9 [1]: do not have the capacity to elicit a humoral immune response targeting PCSK9
47 | PEEDGTRFGRQASK [SEQ ID NO: 32] |  | capacity to elicit a humoral immune response targeting PCSK9 [1]: do not have the capacity to elicit a humoral immune response targeting PCSK9
48 | PEEDGTRFHRKASK [SEQ ID NO: 18] |  | inhibition of furin cleavage of mature PCSK9 (aa153-692) / formation of truncated PCSK9 (aa219-692, ~50 kDa) by induced antibodies [3]: inhibit the furin cleavage of the mature PCSK9
49 | PEEDGTRFHRQASR [SEQ ID NO: 23] |  | inhibition of furin cleavage of mature PCSK9 (aa153-692) / formation of truncated PCSK9 (aa219-692, ~50 kDa) by induced antibodies [3]: inhibit the furin cleavage of the mature PCSK9
50 | PEEDGTRFHRRASK [SEQ ID NO: 17] |  | inhibition of furin cleavage of mature PCSK9 (aa153-692) / formation of truncated PCSK9 (aa219-692, ~50 kDa) by induced antibodies [3]: inhibit the furin cleavage of the mature PCSK9
51 | PEWDGTRFHRQASK [SEQ ID NO: 26] |  | capacity to elicit a humoral immune response targeting PCSK9 [1]: do not have the capacity to elicit a humoral immune response targeting PCSK9
52 | PQEDGTRFHRQASK [SEQ ID NO: 10] |  | inhibition of furin cleavage of mature PCSK9 (aa153-692) / formation of truncated PCSK9 (aa219-692, ~50 kDa) by induced antibodies [3]: inhibit the furin cleavage of the mature PCSK9
